Laboratory results taken from patent publication US11076597B2, “High stress resistant plant growth regulator and preparation method and use thereof” (SHANGHAI INSTITUTES FOR BIOLOGICAL SCIENCES, CHINESE …, priority 2015, dated 2021).
“Also recorded” adds a separate entry of the source.

Legend:
[1] = system: PYL receptor triple mutant (pyr1;pyl1;pyl4) seeds; experiment: Seed germination, PYL receptor triple mutant; type: in vivo, Arabidopsis thaliana; conditions: 1 μM in 1/2 MS solid medium, 6 days after sowing; FIG. 3
Method: Take the compounds 0428 and 0224 of the present invention as examples. The seeds of Arabidopsis thaliana Col-0 ecotype and PYL receptor triple mutant (pyr1;pyl1;pyl4) were sterilized with NaClO and placed at 4° C. for 3 days of the vernalization, and then sown in ½ MS solid medium containing 1 μM (+)-ABA/0224 compound or 0.05% DMSO (control) or in ½ MS solid medium containing 2 μM (+)-ABA/compound 0428 of the present invention or 0.05% DMSO (control). Two lines of plant were sown simultaneously on each medium of 6 cm diameter, with 15-20 seeds sown for each line and 4 replicates for each compound. Culture medium was placed at 22° C. with long-day culture. The seeds germinated on a solid medium containing 1 μM (+)-ABA/0224 compound were photographed 6 days after sowing, and seeds germinated on solid medium containing 2 μM (+)-ABA/0428 compound were photographed 9 days after sowing.

cotton = experiment: Soil drought experiment, cotton; type: in vivo; conditions: 20 μM sprayed once every 3 days; re-watering after 6 days of drought; FIG. 9
Method: Soybean, cotton and wheat for leaf transpiration experiments were used simultaneously for soil drought experiments, each pot was filled with the same weight of soil to reduce experimental error. All the soybean plants were subjected to a long-day culture at 26° C. 14 days after sowing, watering was stopped and the plants with the consistent growth condition were selected for drought treatment. At the start of the drought, a solution containing 0.1% Tween-20 and 20 μM (+)-ABA/0224/0304 or 0.1% Tween-20 and 0.05% DMSO (control) was sprayed onto the leaf surface once with a spray amount of 4 ml solution/pot. Meanwhile, the position of the pot was changed and re-watered 6 days after the drought, and the photos were taken 1 day after re-watering. The drought experiment of cotton was similar to that of soybeans, watering was stopped 25 days after sowing, the plants with the consistent growth condition were selected for drought treatment. At the start of the drought, a solution containing 0.1% Tween-20 and 20 μM (+)-ABA/0224 or 0.1% Tween-20 and 0.05% DMSO (control) was sprayed onto the leaf surface once with a spray amount of 4 ml solution/pot, and then sprayed once every 3 days. Meanwhile, the position of the pot was changed and re-watered 6 days after the drought, and the photos were taken before re-watering and 1 day after re-watering. […]

soybean GmPYL6 protein = experiment: AlphaScreen assay, soybean GmPYL6 with Arabidopsis AtHAB1; type: biochemical; conditions: fraction of the EC50 of ABA; FIG. 13
Method: The AlphaScreen kit (available from Perkin Elmer) was used, and the method was as follows: a 10× buffer (50 mM MOPS, pH 7.4, 50 mM NaF, 50 mM CHAPS, 0.1 mg/ml bovine serum albumin) diluted at 1:10, each of 100 nM HAB1 with Biotin tag sequence and PYR1/PYL1/PYL2/PYL7/GmPYL6/OsPYL2 protein with dual tags of 6×His and SUMO sequences, corresponding concentrations of (+)-ABA/0224/0304/0706/0708/0713/0715/0428/NC0F4, and 5 μg/ml donor beads and acceptor beads (available from Perkin Elmer) were contained in 150 μl of experimental system. After incubating for 1.5 hours at room temperature in the dark, it was placed into an Envision Plate Reader (available from Perkin Elmer) under the programmed AlphaScreen procedure for readings.

| SMILES | inhibition of seed germination of pyr1;pyl1;pyl4 triple mutant [1] | growth after drought and re-watering (cotton) | EC50 value for soybean GmPYL6 as fraction of that of ABA (soybean GmPYL6 protein) |
| --- | --- | --- | --- |
| CCCN1C(=O)OC(C)c2cc(NS(=O)(=O)Cc3c(F)c(F)c(C)c(F)c3F)ccc21 (stereo not drawn) [Compound 0224] | significantly reduced; also recorded: could not inhibit the seed germination of PYR/PYL triple mutant | significantly better than that of the control group (DMSO) or that of the cotton treated with the same concentration of ABA; also recorded: significantly better growth after re-watering than that in the DMSO-sprayed control group and the plants sprayed with the same concentration of ABA | – |
| CCCN1C(=O)OCc2cc(NS(=O)(=O)Cc3c(F)c(F)c(C)c(F)c3F)ccc21 [Compound 0428] | – | – | about 1/14 |
